The target in this assay is T1, Regulator of G-protein signaling 7 (Homo sapiens, UniProt P49802).
T1 sequence (P49802 whole entry): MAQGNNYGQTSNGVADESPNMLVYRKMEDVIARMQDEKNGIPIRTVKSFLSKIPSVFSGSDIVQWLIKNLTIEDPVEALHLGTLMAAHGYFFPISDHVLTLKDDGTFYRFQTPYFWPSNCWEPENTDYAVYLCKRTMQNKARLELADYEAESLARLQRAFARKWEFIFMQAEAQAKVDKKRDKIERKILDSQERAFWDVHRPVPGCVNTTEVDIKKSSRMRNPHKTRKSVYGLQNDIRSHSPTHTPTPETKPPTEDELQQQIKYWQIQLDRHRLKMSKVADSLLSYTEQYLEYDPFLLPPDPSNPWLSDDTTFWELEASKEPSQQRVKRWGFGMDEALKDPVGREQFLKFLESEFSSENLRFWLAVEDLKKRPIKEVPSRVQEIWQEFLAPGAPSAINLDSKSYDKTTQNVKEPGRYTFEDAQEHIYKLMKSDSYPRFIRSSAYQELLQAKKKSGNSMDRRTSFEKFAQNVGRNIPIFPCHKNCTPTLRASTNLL
In words: small molecules altering RGS7 interaction with Galphao – biochemical, multiplexed bead flow cytometry, SAR compounds, SAR follow-up (AID 2296).

As usually defined, the Ki is the equilibrium dissociation constant of an inhibitor or competing ligand from its target. Read a high Ki as lower affinity. Compound `NS(=O)(=O)c1ccc(N=NCc2ccc(O)c(O)c2O)c([N+](=O)[O-])c1` [4-[[(E)-(2,3-dihydroxy-4-oxo-1-cyclohexa-2,5-dienylidene)methyl]hydrazo]-3-nitrobenzenesulfonamide] returned a Ki of 120 nM.

The record behind these values is BindingDB's records for doi:10.7270/Q20863RR (Nmmlsc, 2010).
